The target in assay [1] is T1, Tyrosine-protein phosphatase non-receptor type 22 (Homo sapiens, UniProt Q9Y2R2).
T1 sequence (Q9Y2R2 whole entry): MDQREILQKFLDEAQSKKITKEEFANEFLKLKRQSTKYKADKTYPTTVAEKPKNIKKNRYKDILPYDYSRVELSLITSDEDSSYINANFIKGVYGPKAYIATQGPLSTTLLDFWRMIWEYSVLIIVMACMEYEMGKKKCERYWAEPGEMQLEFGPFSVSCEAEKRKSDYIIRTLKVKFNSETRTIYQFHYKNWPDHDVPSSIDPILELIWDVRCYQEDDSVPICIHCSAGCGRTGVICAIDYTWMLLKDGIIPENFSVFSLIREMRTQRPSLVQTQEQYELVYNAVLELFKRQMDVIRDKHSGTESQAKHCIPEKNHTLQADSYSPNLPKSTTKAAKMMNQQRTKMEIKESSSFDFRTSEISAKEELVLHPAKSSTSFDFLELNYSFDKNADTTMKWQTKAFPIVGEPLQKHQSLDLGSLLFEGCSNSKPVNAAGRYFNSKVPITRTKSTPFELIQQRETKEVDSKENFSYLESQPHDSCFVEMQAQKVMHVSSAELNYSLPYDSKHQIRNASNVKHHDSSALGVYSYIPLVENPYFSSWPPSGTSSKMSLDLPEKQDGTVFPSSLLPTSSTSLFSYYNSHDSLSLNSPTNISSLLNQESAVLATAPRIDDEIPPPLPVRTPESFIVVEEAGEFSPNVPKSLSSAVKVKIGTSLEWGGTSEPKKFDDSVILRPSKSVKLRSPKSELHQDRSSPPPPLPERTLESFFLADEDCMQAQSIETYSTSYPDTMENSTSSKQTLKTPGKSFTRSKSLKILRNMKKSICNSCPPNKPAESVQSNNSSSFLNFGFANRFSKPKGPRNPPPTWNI
Briefly: Inhibition of N-terminal His-tagged LYP catalytic domain (1 to 294 residues) (unknown origin) expressed in Escherichia coli BL21 (DE3) cells using pNPP as substrate by absorbance based plate reader analysis.

Assay [2] addresses T2, Tyrosine-protein phosphatase non-receptor type 5 (Homo sapiens, UniProt P54829).
T2 sequence (P54829 whole entry): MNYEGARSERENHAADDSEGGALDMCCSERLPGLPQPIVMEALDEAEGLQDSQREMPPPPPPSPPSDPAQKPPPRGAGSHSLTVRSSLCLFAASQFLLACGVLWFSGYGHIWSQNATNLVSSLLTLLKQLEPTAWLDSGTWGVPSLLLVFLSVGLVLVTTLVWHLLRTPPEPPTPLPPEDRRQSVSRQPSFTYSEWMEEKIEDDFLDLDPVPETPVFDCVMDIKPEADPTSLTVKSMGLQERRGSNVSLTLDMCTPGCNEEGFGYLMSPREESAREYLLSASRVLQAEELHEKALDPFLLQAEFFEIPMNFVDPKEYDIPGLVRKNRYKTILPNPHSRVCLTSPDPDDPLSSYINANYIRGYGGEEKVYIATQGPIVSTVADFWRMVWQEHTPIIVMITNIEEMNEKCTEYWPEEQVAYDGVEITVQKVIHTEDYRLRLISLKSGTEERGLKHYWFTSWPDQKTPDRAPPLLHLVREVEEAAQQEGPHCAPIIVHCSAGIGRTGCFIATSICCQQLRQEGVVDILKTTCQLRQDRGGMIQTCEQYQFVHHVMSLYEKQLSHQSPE
Briefly: Inhibition of N-terminal His-tagged PTPN5 catalytic domain (1 to 294 residues) (unknown origin) expressed in Escherichia coli BL21 (DE3) cells.

Assay [3] deals with T3, Protein phosphatase Slingshot homolog 2 (Homo sapiens, UniProt Q76I76).
T3 sequence (Q76I76 whole entry): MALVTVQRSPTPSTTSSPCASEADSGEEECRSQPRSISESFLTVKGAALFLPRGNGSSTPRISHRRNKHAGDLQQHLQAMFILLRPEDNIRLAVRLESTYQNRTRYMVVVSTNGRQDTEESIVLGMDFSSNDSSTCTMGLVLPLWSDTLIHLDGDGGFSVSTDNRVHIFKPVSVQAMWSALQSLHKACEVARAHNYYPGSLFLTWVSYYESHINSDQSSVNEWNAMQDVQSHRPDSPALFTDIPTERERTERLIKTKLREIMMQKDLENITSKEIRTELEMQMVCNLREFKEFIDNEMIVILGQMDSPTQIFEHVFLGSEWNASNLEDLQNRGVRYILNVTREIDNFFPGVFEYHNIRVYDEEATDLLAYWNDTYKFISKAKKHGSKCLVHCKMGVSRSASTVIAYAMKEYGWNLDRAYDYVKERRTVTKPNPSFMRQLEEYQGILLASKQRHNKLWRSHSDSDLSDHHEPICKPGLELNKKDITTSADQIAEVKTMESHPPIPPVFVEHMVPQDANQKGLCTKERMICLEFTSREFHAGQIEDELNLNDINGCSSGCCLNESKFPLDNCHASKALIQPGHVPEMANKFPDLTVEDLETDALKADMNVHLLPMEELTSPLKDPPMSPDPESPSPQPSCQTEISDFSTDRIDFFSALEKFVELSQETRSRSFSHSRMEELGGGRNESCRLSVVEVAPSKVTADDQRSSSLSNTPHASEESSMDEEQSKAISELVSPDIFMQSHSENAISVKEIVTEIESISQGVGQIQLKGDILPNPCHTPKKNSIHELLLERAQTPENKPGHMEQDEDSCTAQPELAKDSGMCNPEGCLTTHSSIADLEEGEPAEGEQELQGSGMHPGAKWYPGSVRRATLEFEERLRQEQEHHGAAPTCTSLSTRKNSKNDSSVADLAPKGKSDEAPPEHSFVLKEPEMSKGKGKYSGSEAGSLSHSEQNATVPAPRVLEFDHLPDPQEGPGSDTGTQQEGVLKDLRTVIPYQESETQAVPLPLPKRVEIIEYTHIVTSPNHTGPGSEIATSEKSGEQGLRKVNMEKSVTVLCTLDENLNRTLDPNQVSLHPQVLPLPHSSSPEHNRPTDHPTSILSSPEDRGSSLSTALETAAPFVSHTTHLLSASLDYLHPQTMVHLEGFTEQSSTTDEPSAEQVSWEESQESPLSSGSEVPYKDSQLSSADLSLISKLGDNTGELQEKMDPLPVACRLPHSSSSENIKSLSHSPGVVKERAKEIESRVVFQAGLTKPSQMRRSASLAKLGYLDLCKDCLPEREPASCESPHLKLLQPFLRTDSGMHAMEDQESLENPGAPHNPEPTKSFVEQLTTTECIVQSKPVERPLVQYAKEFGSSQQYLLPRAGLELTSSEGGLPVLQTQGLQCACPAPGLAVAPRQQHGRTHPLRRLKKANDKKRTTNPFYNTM
Briefly: Inhibition of N-terminal His-tagged SSH2 catalytic domain (1 to 294 residues) (unknown origin) expressed in Escherichia coli BL21 (DE3) cells.

The nature of assay [4]: Selectivity ratio of IC50 for inhibition of N-terminal His-tagged PTP1B catalytic domain (1 to 294 residues) (unknown origin) expressed in Escherichia coli BL21 (DE3) cells to IC50 for inhibition of N-terminal His-tagged LYP catalytic domain (1 to 294 residues) (unknown origin) expressed in Escherichia coli BL21 (DE3) cells using pNPP as substrate.

pIC50: −log10 of the molar value.

With `O=C(O)c1cc2cc(N(Cc3ccc(OCc4ccccc4)cc3)S(=O)(=O)c3ccc(-c4ccccc4)cc3)ccc2o1`, the pIC50 in assay [1] was 5.59; in assay [2], less than 4.70; in assay [3], less than 4.70. Further, the Ratio IC50 in assay [4] is greater than 3.5.
On to `CC(=O)C1=C(C)N=c2s/c(=C/c3ccc(OCc4ccc(C(=O)O)cc4)cc3)c(=O)n2C1c1ccc(N(C)C)cc1` (stereo not drawn), for which the pIC50 in assay [1] was 5.21; in assay [2], less than 4.70; in assay [3], less than 4.70. The Ratio IC50 in assay [4] was 1.2.
With `O=C(O)c1cc2cc(N(Cc3cccc(-c4ccccc4)c3)S(=O)(=O)c3ccc(-c4ccccc4)cc3)ccc2o1`, the pIC50 in assay [1] was 5.49; in assay [2], less than 4.70; in assay [3] it was less than 4.70. For the same compound, the Ratio IC50 in assay [4] is 1.8.
With `COc1ccc(-c2ccc(CN(c3ccc4oc(C(=O)O)cc4c3)S(=O)(=O)c3ccc(Cl)c([N+](=O)[O-])c3)cc2)cc1`, the pIC50 in assay [2] and in assay [3] was less than 4.70 each time.
With `O=C(O)c1cc2cc(N(Cc3ccc(-c4ccccc4)cc3)S(=O)(=O)c3ccc(-c4cccc(O)c4)cc3)ccc2o1`, the pIC50 in assay [1] was 5.44; in assay [2], less than 4.70; in assay [3] it was less than 4.70. For the same compound, the Ratio IC50 in assay [4] amounted to 1.8.
